Laboratory results: patent US7220876B2, “Arylcycloalkyl derivatives having branched side chains, processes for their preparation and their use as pharmaceuticals” (Sanofi-Aventis Deutschland GmbH, priority 2003, dated 2007)

Each molecule was assayed against T1, human PPARalpha (Homo sapiens, UniProt Q07869) (assay: Cellular PPARalpha assay (stably transfected HEK luciferase reporter cell line)). Conditions: GR-GAL4-humanPPARalpha-LBD, luciferase readout.
T1 construct: human PPARalpha receptor (amino acids S167-Y468); expressed in transfected cells; host or cells: HEK (human embryo kidney) cells, stably transfected with pcDNA3 carrying the fusion construct
T1 sequence (Q07869 167-468): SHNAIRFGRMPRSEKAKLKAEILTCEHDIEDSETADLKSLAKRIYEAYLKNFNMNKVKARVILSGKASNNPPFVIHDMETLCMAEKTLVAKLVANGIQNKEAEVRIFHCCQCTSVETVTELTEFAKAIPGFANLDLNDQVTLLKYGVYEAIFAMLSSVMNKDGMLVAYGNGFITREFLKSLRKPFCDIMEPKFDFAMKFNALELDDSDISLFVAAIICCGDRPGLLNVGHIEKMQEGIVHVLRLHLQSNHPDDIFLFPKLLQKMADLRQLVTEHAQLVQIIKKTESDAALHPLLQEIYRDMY
Format: cell-based
Description: The potency of substances which bind to human PPARalpha and activate in an agonistic manner is analyzed using a stably transfected HEK cell line (HEK=human embryo kidney) which is referred to here as PPARalpha reporter cell line. It contains two genetic elements, a luciferase reporter element (pdeltaM-GAL4-Luc-Zeo) and a PPARalpha fusion protein (GR-GAL4-humanPPARalpha-LBD) which mediates expression of the luciferase reporter element depending on a PPARalpha ligand. The stably and constitutively expressed fusion protein GR-GAL4-humanPPARalpha-LBD binds in the cell nucleus of the PPARalpha reporter cell line via the GAL4 protein portion to the GAL4 DNA binding motifs 5′-upstream of the luciferase reporter element which is integrated in the genome of the cell line. There is only little expression of the luciferase reporter gene without addition of a PPARalpha ligand if fatty acid-depleted fetal calf serum (cs-FCS) is used in the assay. PPARalpha ligands bind and activate the PPARalpha fusion protein and thereby bring about expression of the luciferase reporter gene. The luciferase which is formed can be detected by means of chemiluminescence via an appropriate substrate.
The PPARalpha reporter cell line was prepared in 2 stages. Firstly, the luciferase reporter element was constructed and stably transfected into HEK cells. […] The minimal MMTV promoter section contains a CCAAT box and a TATA element in order to enable efficient transcription by RNA polymerase II. […] Then the complete Photinus pyralis gene (Genbank Accession # M15077) was cloned in 3′-downstream of the GAL4-MMTV element. After sequencing, the luceriferase reporter element consisting of five GAL4 binding sites, MMTV promoter and luciferase gene was recloned into a plasmid which confers zeocin resistance in order to obtain the plasmid pdeltaM-GAL4-Luc-Zeo. This vector was transfected into HEK cells in accordance with the statements in Ausubel, F. M. et al. (Current protocols in molecular biology, Vol. 1-3, John Wiley & Sons, Inc., 1995). […] In a second step, the PPARalpha fusion protein (GR-GAL4-humanPPARalpha-LBD) was introduced into the stable cell clone described. […] The cDNA of the ligand-binding domain of the human PPARalpha receptor (amino acids S167-Y468; Genbank Accession # S74349) was cloned in at the 3′-end of this GR-GAL4 construct. The fusion construct prepared in this way (GR-GAL4-humanPPARalpha-LBD) was recloned into the plasmid pcDNA3 (from Invitrogen) in order to enable constitutive expression therein by the cytomegalovirus promoter. This plasmid was linearized with a restriction endonuclease and stably transfected into the previously described cell clone containing the luciferase reporter element. The finished PPARalpha reporter cell line which contains a luciferase reporter element and constitutively expresses the PPARalpha fusion protein (GR-GAL4-human PPARalpha-LBD) was isolated by selection with zeocin (0.5 mg/ml) and G418 (0.5 mg/ml).
The activity of PPARalpha agonists is determined in a 3-day assay which is described below: […]

Row | SMILES | EC50 [nM]
1 | CCCCNC(=O)N(CCOC1CCCC(OCc2cccc(C)c2C(=O)O)C1)C(C)CC(C)C (mixture of isomers) [XXII, 2-(cis-3-{2-[3-butyl-1-((1S)/(1R),3-dimethylbutyl)-ureido]ethoxy}cyclohexyloxymethyl)-6-methylbenzoic acid] | 3.3
2 | Cc1cccc(CO[C@@H]2CCC[C@H](OCCN(C(=O)Nc3cccc(F)c3)C3CC3)C2)c1C(=O)O (racemic) [XLV, 2-(cis-3-{2-[1-cyclopropyl-3-(3-fluorophenyl)-ureido]ethoxy}cyclohexyloxymethyl)-6-methylbenzoic acid] | 90
3 | Cc1ccccc1NC(=O)N(CCO[C@H]1CCC[C@@H](OCc2cccc(C)c2C(=O)O)C1)C1CCCCC1 (racemic) [XV, 2-{cis-3-[2-(1-cyclohexyl-3-o-tolylureido)ethoxy]cyclohexyloxymethyl}-6-methylbenzoic acid] | 31
4 | Cc1cccc(CO[C@@H]2CCC[C@H](OCCN(C(=O)Nc3cccc(F)c3)C3CCCCC3)C2)c1C(=O)O (racemic) [XVI, 2-(cis-3-{2-[1-cyclohexyl-3-(3-fluorophenyl)-ureido]ethoxy}cyclohexyloxymethyl)-6-methylbenzoic acid] | 38
5 | CCCCNC(=O)N(CCO[C@H]1CCC[C@@H](OCc2cccc(C)c2C(=O)O)C1)C1CCCCC1 (racemic) [XVII, 2-{cis-3-[2-(3-butyl-1-cyclohexylureido)ethoxy]cyclohexyloxymethyl}-6-methylbenzoic acid] | 84
6 | CCCCCCCN(CCO[C@H]1CCC[C@@H](OCc2cccc(C)c2C(=O)O)C1)C(=O)NCCCC (racemic) [XXXIX, 2-{cis-3-[2-(3-butyl-1-heptylureido)ethoxy]cyclohexyloxy-methyl}-6-methylbenzoic acid] | 0.17
7 | Cc1cccc(CO[C@@H]2CCC[C@H](OCCN(CCCc3ccccc3)C(=O)Nc3ccccc3)C2)c1C(=O)O [Example I, 2-{(1R,3S)-3-[2-(1-[3-phenylpropyl]-3-phenylureido)ethoxy]cyclohexyloxymethyl}-6-methylbenzoic acid] | 1.9
8 | Cc1cccc(CO[C@@H]2CCC[C@H](OCCN(CCc3ccc(Cl)cc3)C(=O)Nc3ccccc3)C2)c1C(=O)O [II, 2-{(1R,3S)-3-[2-(1-[2-(4-chlorophenyl)ethyl]-3-phenylureido)ethoxy]cyclohexyloxymethyl}-6-methylbenzoic acid] | 4.9
9 | CCCCCCCN(CCO[C@H]1CCC[C@@H](OCc2cccc(C)c2C(=O)O)C1)C(=O)Nc1ccccc1 [IX, 2-{(1R,3S)-3-[2-(1-heptyl-3-phenylureido)ethoxy]cyclohexyloxymethyl}-6-methylbenzoic acid] | 0.13
10 | CCCCCN(CCO[C@H]1CCC[C@@H](OCc2cccc(C)c2C(=O)O)C1)C(=O)Nc1ccccc1 [VII, 2-{(1 R,3S)-3-[2-(1-pentyl-3-phenylureido)ethoxy]cyclohexyloxymethyl}-6-methylbenzoic acid] | 1.7
11 | Cc1cccc(CO[C@@H]2CCC[C@H](OCCN(CC(C)(C)C)C(=O)Nc3ccccc3)C2)c1C(=O)O [VIII, 2-((1R,3S)-3-{2-[1-(2,2-dimethylpropyl)-3-phenylureido]ethoxy}cyclohexyloxymethyl)-6-methylbenzoic acid] | 96
12 | CCCCNC(=O)N(CCO[C@H]1CCC[C@@H](OCc2cccc(C)c2C(=O)O)C1)Cc1ccc(C)cc1 [XII, 2-((1R,3S)-3-{2-[3-butyl-1-(4-methylbenzyl)ureido]ethoxy}-cyclohexyloxymethyl)-6-methylbenzoic acid] | 0.07
